Measured values: US12357608B2, “Methods and compositions utilizing RRx-001 combination therapy for radioprotection” (priority 2018, dated 2025)
Entries after “also recorded” stand apart in the source; their conditions may differ.

Key:
[1] = test system: U937 cells; assay: Western blotting of ARE proteins in U937 monocytes and macrophages; format: cell-based, human; conditions: 3 mM RRx-001 16 hours
Method: (§1) Expression of ARE proteins was assayed in hMSC, macrophages, and monocytes following in vitro irradiation of the cells, which were pretreated with RRx-001 or vehicle. Protein expression was assayed by Western blotting and protein quantification.
(§2) hMSC were treated for 16 hours with […] RRx-001 or the vehicle control (0.05% DMSO), irradiated at 10 Gy or sham-irradiated and the protein collected 8 or 24 hours post-sham or irradiation. Human monocytic leukemic THP-1 and U937 cells were differentiated into macrophages with 50 nM Phorbol 12-myristate 13-acetate (PMA) for 24 hours before treatment. Differentiated and non-differentiated cells were treated with […] RRx-001 or 0.05% DMSO (vehicle control) for 16 hours prior to radiation. The cells were irradiated at 5 Gy or sham-irradiated and collected 4-8 hours later for both analysis. For each experiment, duplicates of each sample were run.

[2] = test system: CD2F1 male mice; assay: Survival following lethal total body irradiation (TBI); format: in vivo
Method: In this Example, the effects of systemic administration of RRx-001 on survival in response to a lethal dose of radiation was assayed in mice. CD2F1 male mice 9.5-11 weeks old were administered a single dose of RRx-001 by intraperitoneal (IP) injection 24 hours prior to a lethal radiation dose. 24 mice received 10 mg/kg RRx-001 (formulated in 5% DMSO in sterile H2O) and 24 mice received the vehicle control (5% DMSO) in sterile H2O only).
The mice were subjected to total body irradiation (TBI) with 9.35 Gy (LD70/30) at 0.6 Gy/min using High-level Cobalt-60. Unanesthetized mice were placed in well-ventilated Plexiglas restrainers and irradiated bilaterally. Sham-irradiated mice were also placed in identical Plexiglas restrainers and kept in a room shielded from irradiation at the same time. In each experiment, the dose to the abdominal cores of the animals was delivered at a dose rate of approximately 0.6 Gy/min. Dosimetry was performed prior to the irradiation of the animals using the highly accurate alanine/electron spin resonance (ESR) dosimetry system (American Society for Testing and Materials, Standard E 1607) to measure dose rates (to water) in the cores of acrylic mouse phantoms, which were located in the compartments of the exposure rack. A calibration curve based on standard alanine calibration dosimeters provided by the National Institute of Standards and Technology (NIST, Gaithersburg, MD) was used to measure the doses. The accuracy of the dose rate calibrations has been verified several times using the services of the National Physics Laboratory (UK National Standards Laboratory, London, UK) and the M.D. Anderson Cancer Center (Houston, TX). The corrections applied to the measured dose rates in the phantoms were for a small difference in the Co-60 energy between the mass energy-absorption coefficients for soft tissue and water, as well as source decay. The radiation field was uniform within ±1.2%.
Mice were monitored at least twice a day for 30 days post-irradiation. During the critical period (days 10-20), mice were monitored at least three times a day with no more than 10 hours between observations. Mice displaying any signs of discomfort received food in their cage as a wet mash. Mice displaying overt dyspnea, weight loss, lethargy, or other markers of moribundity and appearing to be in distress were humanely euthanized in a separate room using carbon dioxide gas followed by cervical dislocation after breathing stopped as a confirmatory method of euthanasia. This experiment was repeated for a total of n=24 mice per group.
Survival curves were estimated using the Kaplan-Meier method and were compared using a two-sided log-rank test at the 0.05 significance level. P-values were considered statistically significant if less than 0.05.

[3] = test system: THP-1 cells; assay: Cytokine array of irradiated THP-1 monocytes and macrophages; format: cell-based, human
Method: A cytokine array was employed to examine cytokine expression following in vitro irradiation of human monocytic leukemic THP-1 cells. THP-1 cells were differentiated into macrophages with 50 nM Phorbol 12-myristate 13-acetate (PMA) for 24 hours before treatment. Differentiated and non-differentiated cells were treated with […] RRx-001 or 0.05% DMSO (vehicle control) for 16 hours prior to radiation. The cells were irradiated at 5 Gy or sham-irradiated and collected 4-8 hours later for both analysis. For the cytokine analysis, cell media was collected and blotted onto Proteome Profiler Human Cytokine Arrays (R&D Systems, Inc.) according to the manufacturer's protocol.

[4] = test system: THP-1 cells; assay: Western blotting of ARE proteins in THP-1 monocytes and macrophages; format: cell-based, human; conditions: THP-1 macrophages; 3 mM RRx-001 16 hours
Method: as §1, §2

O=C(CBr)N1CC([N+](=O)[O-])([N+](=O)[O-])C1 [RRx-001, 2-bromo-1-(3,3-dinitroazetidin-1-yl)ethan-1-one]
NQO-1 expression ([1]; U937 macrophages): no change
SOD-1 expression ([1]; U937 macrophages): no change
HO-1 production ([1]; U937 macrophages, sham and irradiated groups): increased HO-1 production
HO-1 expression ([1]; U937 monocyte fraction): significant increase in HO-1
increase in mean survival time compared to the vehicle control ([2]; 10 mg/kg 24 hours prior to lethal TBI): 7 days
increase in survival ([2]; 10 mg/kg 24 hours prior to lethal TBI, vs vehicle control): 33.4%
survival times, means±standard errors ([2]; 10 mg/kg IP 24 hours prior to 9.35 Gy TBI, 30-day observation, N=24/group): 27.2 ± 1.1 days
reduction in the 30-day death risk ([2]; one dose 10 mg/kg IP 24 hours prior to 9.35 Gy (LD70/30) TBI, vs vehicle control irradiated mice): ~33.4%
cytokines involved in inflammation ([3]; THP-1 macrophage fraction, sham and 5 Gy irradiated, 3 mM RRx-001 16 hours): reduction in cytokines involved in inflammation
pro-inflammatory chemokine IL-8 ([3]; THP-1 macrophages): reduction
CCL5/RANTES expression ([3]; THP-1 monocytes, 3 mM RRx-001 16 hours): induction; also recorded: upregulation
HO-1 expression [4]: no significant increase in HO-1
